Patent US20250041194A1, “COMPOSITION COMPRISING GALACTINOL AND USE THEREOF” (Clariant International Ltd, priority 2021, published 2025)

Key:
[1] = tested on: normal human dermal fibroblasts (NHDF); test: Transcriptomic study, mRNA expression by RT-qPCR (Taqman); assay type: cell-based; settings: 24 h treatment, vs untreated
Description: The mRNA expression was quantified after 24 h of NHDF treatment with both Gal and C-Gal.
mRNA extraction was realized according to the provider recommendations (Qiagen). Briefly, lysis buffer RLT-Plus was added on the cell pellet and the homogenous lysate was transferred in a column. The eluate was mixed with one volume 70° ethanol and was transferred in a pink <<RNeasy>> column. The column was washed with buffer. Elution was realized with RNase-free water and the RNA quantitation was done by D.O. 260 nm, 280 nm, 320 nm measurements (Biotek, Cytation3 & Take3 Plate) with “Nucleic Acid Quantification” software application. mRNA quality was checked using a fragment analyser (Advanced Analytical). Then, mRNA reverse transcription allowing the obtention of cDNA templates was performed on a thermal cycler (Bio-Rad). cDNA templates were used to perform the qPCR. For the transcriptomic study, it was used Biorad predesigned plates for ECM components, antioxidants genes, skin homeostasis. Then, the data generated allowed the automatic calculation using Bio-Rad CFX manager of mRNA expression fold change and p values in comparison to untreated condition.
All data are statistically significant compared to control condition (p value <0.05).

NHEK [2] = test: Cell protection against UVB irradiation, bright-field cell morphology observation; assay type: cell-based, human; settings: UVB 30 mJ/cm^2, preventive/curative/combined, observed after 24 hours, data not shown
Description: (§1) In the following studies, the capabilities of Gal and C-Gal to protect skin cells (NHEK and NHDF) against various stress agents such as UV irradiations (UVB and UVA), or environmental factors (humidity and temperature) were assessed.
Briefly, using a bright-field imaging microscope, it was studied the effect of the UVB irradiation on NHEK's morphology in various experimental conditions in presence or not of Gal and C-Gal: • “Preventive” condition: Gal or C-Gal was applied on NHEK during 24 hours before UVB irradiation (30 mJ/cm^2), and the morphology of the cells was observed after 24 hours, • “Curative” condition: Gal or C-Gal was applied after UVB irradiation, and the morphology of the cells was observed after 24 hours, • Combined condition “preventive and curative”: Gal or C-Gal was applied before and after UVB irradiation and the morphology of the cells was observed after 24 hours.

NHDF = test: Cell protection against UVA irradiation, bright-field cell morphology observation; assay type: cell-based, human; settings: UVA 10 J/cm^2, curative, observed after 24 hours, data not shown
Description: as §1
The same experiments as described above were repeated by using UVA irradiation on NHDF in the following condition: • “Curative” condition: Gal or C-Gal was applied after UVA irradiation (10 J/cm^2), and the morphology of the cells were observed after 24 hours.

NHEK [3] = test: Cell protection against environmental stress (heat, hydric), bright-field cell morphology observation; assay type: cell-based, human; settings: heat stress 37 to 44° C. 30 min, hydric stress 90% to 45% relative humidity, or both, data not shown
Description: as §1
Finally, the effect of environmental stress on cell morphology was studied in NHEK treated with and without Gal or C-Gal (using a bright-field imaging microscope). The environmental stress applied were either a heat stress (increase in temperature from 37° C. to 44° C. during 30 min), or an hydric stress “modulation of relative humidity from 90% to 45%” or a combination of both stresses “heat plus hydric stresses”.

HSP27 = HSP27 protein expression by immunostaining; assay type: cell-based, human; settings: NHDF, 24 h treatment, basal (non stressed) condition; FIG. 5
Description: NHDF were treated with Gal or C-Gal for 24 h (treated cells). […] Pictures were realized with a Nikon microscope (Eclipse Ti2). The quantification of HSP27 was measured by image analysis of fluorescence intensity per cell using Image J software. The statistical analysis (Dunnett) was realized with Minitab software (*p<0.05 compared to control). Results were obtained by performing three independent assays.

OC[C@H]1O[C@H](O[C@@H]2[C@@H](O)[C@H](O)[C@@H](O)[C@H](O)[C@@H]2O)[C@H](O)[C@@H](O)[C@H]1O [Gal, 3-O-α-D-galactopyranosyl-D-myo-inositol]
ECM genes and proteins expressions (COL5A1, ELN, SDC4, VCAN, LAMC2, LUM, ITGA1) ([1]; p value <0.05, FIG. 2): modulation | antioxidant genes expression (NQO1, HMOX1, GPX1, G6PD) ([1]; p value <0.05, FIG. 3): modulated | growth factors gene expression (TGF Beta 1 and NGF) ([1]; p value <0.05, FIG. 4): upregulation | heat shock proteins gene expression (HSPA1A and HSP90AA) ([1]; p value <0.05, FIG. 4): upregulation | mRNA expressions of PCNA, MKi67 and GADD45A (DNA repair and cell proliferation) ([1]; p value <0.05, FIG. 4): upregulation | cell morphology (NHEK [2]): quite regular and expected cells morphology | cell number vs stress condition alone (NHEK [2]): more cells are present | cell morphology (NHDF): quite regular and expected cells morphology | cell number vs stress condition alone (NHDF): more cells are present | cell morphology (NHEK [3]): quite regular and expected cells morphology | HSP27 expression (fluorescence intensity per cell) (HSP27): clear stimulation
